The text below walks through data of patent publication US12589092B2, “Polycyclic compound acting as kinase inhibitor” (HANGZHOU INNOGATE PHARMA CO., LTD., priority 2020, dated 2026).

For orientation: IC50 means the concentration that gives 50% inhibition. One may read the half-life as the time needed for the level to fall by half in the phase considered. The AUC(0-t) is exposure summed from dosing to a finite time, without extrapolation to infinity. A word on the Cmax: it is the peak of the concentration-time curve. As a reminder, the Tmax is the time from dosing to the highest level.

Where two headings read alike, the source gives them in different places.

One data set has as its target CDK2/CycA2 (Homo sapiens, UniProt P24941). As to the kind of experiment: CDK2 kinase activity inhibition assay (caliper mobility shift). In kind it is biochemical. The conditions noted are these: CDK2/CycA2 12 nM, ATP 39 μM; read-out: CDK2 kinase inhibitory activity (IC50). Here is the method: (§1) 1) CDK2, CDK4 and CDK6 Kinase Activity Inhibition Assay
(§2) In vitro enzymatic activity of the CDK isoforms CDK2/CycA2, CDK4/CycD3 and CDK6/cycD3 were measured using caliper mobility shift assay. Dissolve the compounds in DMSO and dilute them with corresponding kinase buffer (CDK2/CycA2 and CDK6/CycD3 were assayed with buffer conditions of 50 mM HEPES (pH 7.5), 10 mM MgCl2, 0.0015% Brij-35 and 2 mM dithiothreitol; CDK4/CycD3 was assayed with buffer condition of 20 mM HEPES (pH 7.5), 10 mM MgCl2, 0.01% Triton X-100 and 2 mM dithiothreitol). Add 5 μl of compound (10% DMSO) with 5 times the final concentration of the reaction to a 384-well plate. […] Collect conversion data on Caliper EZ Reader II (Caliper Life Sciences). Convert the conversion rate into inhibition rate data (% inhibition rate=(max−conversion rate)/(max−min)*100). […] Draw a curve with the concentration and inhibition rate of the compound as abscissa and ordinate, and use XLFit excel add-in version 4.3.1 software to fit the curve and calculate IC50.

Another data set has as its target TRKA (Homo sapiens, UniProt P04629). The data set is described as follows: TRKA kinase activity inhibition assay (caliper mobility shift). The data set is classed as biochemical. The protocol: 2) TRKA Kinase Activity Inhibition Assay
TRKA protein kinase activity was measured by caliper mobility shift assay. Compounds were dissolved in DMSO to make up 10 mM stock solutions. Prepare 1× kinase reaction buffer to serially dilute compounds. 250 nL 100× final concentration of the test compounds were transferred to destination plate 3573 by dispenser Echo 550. Prepare a 2.5× final concentration of kinase solution with 1× kinase buffer. Add 10 μL of 2.5× final kinase solution to compound wells and positive control wells; add 10 μL of 1× kinase buffer to negative control wells. Centrifuge at 1000 rpm for 30 s, shake and mix the reaction plate and incubate at room temperature for 10 min. Prepare a mixture of ATP and kinase substrate solution at 5/3× final concentration with 1× kinase buffer. The reaction was initiated by adding 15 μL of the mixed solution. Centrifuge the 384-well plate at 1000 rpm for 30 s, shake and mix well, and incubate at room temperature for the corresponding time. Add 30 μL of stop solution to stop the kinase reaction, centrifuge at 1000 rpm for 30 s, mix by shaking, and read the conversion rate data with Caliper EZ Reader. Convert conversion to inhibition data (% inhibition=(max DMSO well conversion−sample well conversion)/(max DMSO well conversion−min negative control conversion)*100). Wherein max refers to the conversion rate of the DMSO control, and min refers to the conversion rate of the non-enzymatic control. Draw a curve with the concentration and inhibition rate of the compound as abscissa and ordinate, and use XLFit excel add-in version 4.3.1 software to fit the curve and calculate IC50.

Another data set concerns the target CDK6/cycD3 (Homo sapiens, UniProt Q00534). The data set is described as follows: CDK6 kinase activity inhibition assay (caliper mobility shift). The data set is classed as biochemical. As to conditions: CDK6/cycD3 15 nM, ATP 800 μM; read-out: CDK6 kinase inhibitory activity (IC50). Here is the method: as §1, §2
Data set [1] is described as follows: Pharmacokinetic study in rats (intragastrical administration, plasma LC-MS/MS). The conditions noted are these: male, SD, rat, po, 3 mg/kg.
Procedure: (§5) Instruments: XEVO TQ-S LC/MS instrument produced by Waters. All measurement data is collected and processed by Masslynx V4.1 software, and the data is calculated and processed by Microsoft Excel. Using WinNonLin 8.0 software, the statistical moment method was used to calculate the pharmacokinetic parameters. Mainly include kinetic parameters Tmax, T1/2, Cmax, AUClast etc. Column: ACQUITY UPLC BEH C18 (2.1 mm×50 mm, 1.7 μm); column temperature 40° C.; mobile phase A is water (0.1% formic acid), mobile phase B is acetonitrile, flow rate is 0.350 ml/min, gradient elution is adopted, the elution gradient is 0.50 min: 10% B; 1.50 min: 10% B; 2.30 min: 95% B; 2.31 min: 10% B; 3.00 min: stop. Injection volume: 5 μL.
(§6) Animals: 3 male SD rats with a weight range of 200-220 g. After purchase, they will be kept in the laboratory of the Experimental Animal Center for 2 days and then used. They will be fasted for 12 hours predose and 4 hours after dosing. Drinking water is free during the test. After the rats were gavage, blood samples were taken according to the established time point.
(§7) Solvent: 0.5% Methylcellulose (aqueous solution containing 0.4% Tween 80 and 1% ethanol). Preparation of the solution for intragastrical administration: accurately weigh the compound, add it to the solvent, and use ultrasound at room temperature for 5 minutes to completely dissolve the drug, and prepare a 0.3 mg/ml medicinal solution.
(§8) A single administration was also used to study the pharmacokinetics of the drug sample in rats.
(§9) After intragastrical administration, blood was taken from the orbit at 0.25, 0.5, 1, 2, 4, 9, 12 and 24 hours, and placed in a plastic centrifuge tube pretreated with sodium heparin. After centrifugation, the supernatant plasma was used for LC-MS/MS analysis.
(§10) Accurately weigh the compounds to prepare different concentrations, perform quantitative analysis on mass spectrometry to establish a standard curve, and then test the concentration of the above-mentioned compound in the plasma to obtain the compound concentration at different time points. All measurement data are collected and processed by relevant software, and the statistical moment method is used to calculate the pharmacokinetic parameters (mainly including kinetic parameters Tmax, T1/2, Cmax, AUClast etc).
Another data set in a line: in vivo. As to conditions: male, SD, rat, po, 3 mg/kg.
A further data set deals with CDK9/CycT1 (Homo sapiens, UniProt P50750). As to the kind of experiment: CDK9 kinase activity inhibition assay (ADP-Glo). The conditions noted are these: read-out: CDK9 kinase inhibitory activity (IC50). In kind it is biochemical. Here is the method:
(§3) 3) CDK5, CDK9 and CDK16 Kinase Activity Inhibition Assay
(§4) CDK5/p35NCK, CDK9/CycT1 and CDK16/CycY protein kinase activities were determined using the ADP-Glo Kinase Assay. Dilute the positive compound and the test compound (10 mM stock solution) 25-fold with 100% DMSO, make a 4-fold serial dilution in a 96-well dilution plate, and add 1 μL of the compound to 49 μL of kinase reaction buffer (1 mM Tris, 20 mM MgCl2, 0.10% BSA and 0.5 mM DTT) on a microplate shaker for 20 min. Transfer 2 μL of 2× kinase to the 384-well reaction plate, add 1 μL of the test compound to the 384-well reaction plate, centrifuge at 1000 rpm/min for 1 min, and incubate at 25° C. for 10 min. Transfer 1 μL of the 4× substrate mix to the 384-well reaction plate, centrifuge at 1000 rpm/min for 1 min, and incubate at 25° C. for 60 min. Transfer 4 μL of ADP-Glo to the 384-well reaction plate to centrifuge at 1000 rpm/min for 1 min, and incubate at 25° C. for 40 min. Transfer 8 μL of detection solution to the 384-well reaction plate to centrifuge at 1000 rpm/min for 1 min, and incubate at 25° C. for 40 min. The RLU (Relative luminescence unit) signal was read using a Biotek multifunctional plate reader. Signal intensity is used to characterize the degree of kinase activity. Compound inhibition rate data: % inhibition rate=[1−(compound mean RLU−positive control mean RLU)/(negative control mean RLU−positive control mean RLU)]*100. Taking the log value of the concentration as the X axis and the percentage inhibition rate as the Y axis, the log(inhibitor) vs. response-Variable slope of the analysis software GraphPad Prism 5 was used to fit the dose-response curve to obtain the IC50 value of each compound on the enzyme activity.

The target of another data set is CDK16/CycY (Homo sapiens, UniProt Q00536). The data set is described as follows: CDK16 kinase activity inhibition assay (ADP-Glo). The conditions noted are these: read-out: CDK16 kinase inhibitory activity (IC50). The data set is classed as biochemical. The protocol:
as §3, §4

In a further data set the target is CDK5/p35NCK (Homo sapiens, UniProt Q00535). The data set is described as follows: CDK5 kinase activity inhibition assay (ADP-Glo). In kind it is biochemical. The conditions noted are these: read-out: CDK5 kinase inhibitory activity (IC50). The protocol:
as §3, §4
On the technique in general: In ADP-Glo the light output rises with the ADP produced.

Another data set deals with CDK4/CycD3 (Homo sapiens, UniProt P11802). As to the kind of experiment: CDK4 kinase activity inhibition assay (caliper mobility shift). In kind it is biochemical. The conditions noted are these: CDK4/CycD3 10 nM, ATP 221 μM; read-out: CDK4 kinase inhibitory activity (IC50). Here is the method:
as §1, §2

Setting [2] is: read-out: TRKA kinase inhibitory activity (IC50).

CDK4/CycD3, sequence (P11802 whole entry): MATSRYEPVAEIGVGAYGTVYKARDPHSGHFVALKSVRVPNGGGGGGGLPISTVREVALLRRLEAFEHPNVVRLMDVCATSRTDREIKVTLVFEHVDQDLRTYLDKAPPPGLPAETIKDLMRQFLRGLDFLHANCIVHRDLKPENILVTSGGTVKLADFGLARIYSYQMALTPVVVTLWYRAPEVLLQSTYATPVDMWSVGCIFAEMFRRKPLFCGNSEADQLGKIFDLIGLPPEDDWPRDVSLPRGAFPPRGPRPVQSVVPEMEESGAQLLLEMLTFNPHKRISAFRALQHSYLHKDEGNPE
CDK4/CycD3, sequence (P30281 whole entry partner): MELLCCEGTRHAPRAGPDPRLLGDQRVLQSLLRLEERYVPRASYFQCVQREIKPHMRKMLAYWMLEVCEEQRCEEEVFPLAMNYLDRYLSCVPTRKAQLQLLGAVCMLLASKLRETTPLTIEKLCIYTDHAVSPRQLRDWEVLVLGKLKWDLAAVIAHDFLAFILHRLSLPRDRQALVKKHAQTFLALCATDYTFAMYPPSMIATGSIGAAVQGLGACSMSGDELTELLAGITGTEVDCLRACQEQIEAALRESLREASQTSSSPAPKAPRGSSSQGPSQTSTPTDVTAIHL
CDK6/cycD3, sequence (Q00534 whole entry): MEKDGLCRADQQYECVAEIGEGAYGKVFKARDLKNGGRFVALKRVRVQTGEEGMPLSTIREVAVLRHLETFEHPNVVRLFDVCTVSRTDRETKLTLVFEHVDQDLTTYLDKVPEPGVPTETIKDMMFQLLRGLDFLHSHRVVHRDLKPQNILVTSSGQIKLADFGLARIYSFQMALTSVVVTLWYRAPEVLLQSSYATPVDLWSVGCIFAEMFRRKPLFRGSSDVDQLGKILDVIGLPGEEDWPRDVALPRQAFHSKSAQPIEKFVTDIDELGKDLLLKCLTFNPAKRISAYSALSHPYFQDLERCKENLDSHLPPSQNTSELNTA
CDK6/cycD3, sequence (P30281 whole entry partner): as the sequence (P30281 whole entry partner) above
CDK5/p35NCK, sequence (Q00535 whole entry): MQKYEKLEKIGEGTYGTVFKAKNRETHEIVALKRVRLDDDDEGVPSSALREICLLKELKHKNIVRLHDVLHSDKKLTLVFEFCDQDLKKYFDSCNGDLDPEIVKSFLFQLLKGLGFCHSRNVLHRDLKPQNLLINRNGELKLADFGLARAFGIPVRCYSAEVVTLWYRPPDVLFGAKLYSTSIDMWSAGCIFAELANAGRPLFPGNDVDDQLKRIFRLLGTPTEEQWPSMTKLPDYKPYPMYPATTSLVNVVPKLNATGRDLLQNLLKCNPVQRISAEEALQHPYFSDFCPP
CDK5/p35NCK, sequence (Q15078 whole entry partner): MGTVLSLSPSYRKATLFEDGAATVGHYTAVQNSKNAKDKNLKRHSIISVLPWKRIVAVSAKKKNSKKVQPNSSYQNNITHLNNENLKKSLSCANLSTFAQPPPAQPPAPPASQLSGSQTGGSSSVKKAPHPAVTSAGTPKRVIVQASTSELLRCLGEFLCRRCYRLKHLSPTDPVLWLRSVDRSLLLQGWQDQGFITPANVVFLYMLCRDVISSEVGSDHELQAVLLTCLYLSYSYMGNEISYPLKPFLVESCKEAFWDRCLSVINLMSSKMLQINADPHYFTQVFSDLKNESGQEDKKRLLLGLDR
CDK9/CycT1, sequence (P50750 whole entry): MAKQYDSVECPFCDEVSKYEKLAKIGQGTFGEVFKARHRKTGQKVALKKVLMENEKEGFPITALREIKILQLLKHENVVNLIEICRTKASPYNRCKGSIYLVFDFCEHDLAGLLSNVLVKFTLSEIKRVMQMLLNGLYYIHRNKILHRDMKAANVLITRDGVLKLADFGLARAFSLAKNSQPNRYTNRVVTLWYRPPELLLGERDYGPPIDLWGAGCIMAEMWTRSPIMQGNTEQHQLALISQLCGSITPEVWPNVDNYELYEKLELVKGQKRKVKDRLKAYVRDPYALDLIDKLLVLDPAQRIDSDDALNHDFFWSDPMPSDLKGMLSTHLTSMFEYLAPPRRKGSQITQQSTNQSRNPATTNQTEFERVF
CDK9/CycT1, sequence (O60563 whole entry partner): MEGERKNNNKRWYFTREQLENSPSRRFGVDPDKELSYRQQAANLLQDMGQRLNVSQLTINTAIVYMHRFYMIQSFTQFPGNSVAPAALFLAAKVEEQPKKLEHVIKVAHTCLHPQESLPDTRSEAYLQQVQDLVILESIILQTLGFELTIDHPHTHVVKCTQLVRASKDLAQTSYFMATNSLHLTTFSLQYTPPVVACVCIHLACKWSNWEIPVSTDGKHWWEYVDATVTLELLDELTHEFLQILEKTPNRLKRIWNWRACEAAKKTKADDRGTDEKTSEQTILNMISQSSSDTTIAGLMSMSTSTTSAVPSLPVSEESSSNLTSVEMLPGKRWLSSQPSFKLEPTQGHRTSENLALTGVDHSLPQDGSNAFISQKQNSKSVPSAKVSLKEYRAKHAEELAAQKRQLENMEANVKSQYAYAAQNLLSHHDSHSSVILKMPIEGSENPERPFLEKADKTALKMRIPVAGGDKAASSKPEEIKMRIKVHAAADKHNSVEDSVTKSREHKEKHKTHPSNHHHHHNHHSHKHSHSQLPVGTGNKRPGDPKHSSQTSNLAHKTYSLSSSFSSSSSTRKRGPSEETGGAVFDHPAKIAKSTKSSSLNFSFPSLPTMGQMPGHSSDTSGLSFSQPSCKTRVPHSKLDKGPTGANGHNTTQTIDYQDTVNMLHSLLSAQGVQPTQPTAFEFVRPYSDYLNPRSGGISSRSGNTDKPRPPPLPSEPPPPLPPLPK
TRKA, sequence (P04629 33-796): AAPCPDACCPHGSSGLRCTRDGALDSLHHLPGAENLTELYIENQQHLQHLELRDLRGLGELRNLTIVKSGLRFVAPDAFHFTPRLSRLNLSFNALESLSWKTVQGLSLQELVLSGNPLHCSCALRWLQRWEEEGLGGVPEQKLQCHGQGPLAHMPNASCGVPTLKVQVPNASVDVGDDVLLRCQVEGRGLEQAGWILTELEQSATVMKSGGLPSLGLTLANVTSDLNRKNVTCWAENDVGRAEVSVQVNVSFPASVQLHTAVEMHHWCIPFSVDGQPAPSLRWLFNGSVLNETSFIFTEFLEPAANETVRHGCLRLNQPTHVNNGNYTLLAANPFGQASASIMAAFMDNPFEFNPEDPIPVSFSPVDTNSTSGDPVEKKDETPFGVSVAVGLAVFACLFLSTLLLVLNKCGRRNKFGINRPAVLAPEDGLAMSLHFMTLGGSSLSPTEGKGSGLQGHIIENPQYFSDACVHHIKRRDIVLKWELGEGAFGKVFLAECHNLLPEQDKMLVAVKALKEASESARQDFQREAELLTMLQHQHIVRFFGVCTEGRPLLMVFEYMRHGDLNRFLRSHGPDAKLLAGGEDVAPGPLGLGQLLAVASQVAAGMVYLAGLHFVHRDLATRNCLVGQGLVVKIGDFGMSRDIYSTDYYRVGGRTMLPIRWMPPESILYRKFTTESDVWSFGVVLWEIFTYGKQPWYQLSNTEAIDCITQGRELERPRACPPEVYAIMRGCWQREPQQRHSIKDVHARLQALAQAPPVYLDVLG
CDK16/CycY, sequence (Q00536 whole entry): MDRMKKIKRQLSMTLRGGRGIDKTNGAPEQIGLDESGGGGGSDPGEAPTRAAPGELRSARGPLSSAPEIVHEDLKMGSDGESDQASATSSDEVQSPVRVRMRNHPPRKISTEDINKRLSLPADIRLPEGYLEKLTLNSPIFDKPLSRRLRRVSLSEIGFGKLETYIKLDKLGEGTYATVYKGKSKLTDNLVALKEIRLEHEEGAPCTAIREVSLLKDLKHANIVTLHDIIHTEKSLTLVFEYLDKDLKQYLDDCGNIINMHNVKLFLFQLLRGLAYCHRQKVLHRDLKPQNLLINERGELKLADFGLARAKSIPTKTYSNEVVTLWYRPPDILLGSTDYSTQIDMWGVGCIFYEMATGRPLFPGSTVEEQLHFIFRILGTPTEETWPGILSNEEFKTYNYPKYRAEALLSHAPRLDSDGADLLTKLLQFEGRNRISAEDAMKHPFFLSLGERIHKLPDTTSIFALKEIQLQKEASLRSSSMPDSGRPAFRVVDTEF
CDK16/CycY, sequence (Q8ND76 whole entry partner): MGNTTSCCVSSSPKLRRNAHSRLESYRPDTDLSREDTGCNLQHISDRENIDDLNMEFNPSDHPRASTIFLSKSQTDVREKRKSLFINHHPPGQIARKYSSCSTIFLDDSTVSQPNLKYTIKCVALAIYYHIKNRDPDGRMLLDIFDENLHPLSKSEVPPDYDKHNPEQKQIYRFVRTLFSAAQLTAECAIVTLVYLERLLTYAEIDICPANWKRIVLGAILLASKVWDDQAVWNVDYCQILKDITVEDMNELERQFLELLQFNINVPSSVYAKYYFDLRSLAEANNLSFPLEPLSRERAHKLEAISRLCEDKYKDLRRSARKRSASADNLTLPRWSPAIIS
Procedure for in vivo: as §5, §6, §7, §8, §9, §10

As for `CC(=O)c1c(C)c2cnc(Nc3ccc4c(c3)OC[C@@H]3CN(C5CCN(C)CC5)CCN43)nc2n(C2CCCC2)c1=O` [Compound 2S], the concentration for half-maximal inhibition (IC50) was under 100 nM on CDK2/CycA2; under 10 nM on TRKA; under 10 nM on CDK6/cycD3; under 20 nM at CDK9/CycT1; under 100 nM on CDK16/CycY; under 50 nM on CDK5/p35NCK. Further, the IC50 on CDK4/CycD3 was under 10 nM. This compound registered a half-life in [1] of over 12 h. In “in vivo”, this compound gave an AUC(0-t) of 1910 ng·h/mL. Further, the highest level in “in vivo” (Cmax) was 114 ng/mL. For the same compound, in “in vivo”, the Tmax worked out at 13.3 h.
On to `CC(=O)c1c(C)c2cnc(Nc3ccc4c(c3)OC[C@H]3CN(C5CCOCC5)CCN43)nc2n(C2CCCC2)c1=O` [Compound 1R], for which the 50% inhibitory concentration (IC50) at CDK2/CycA2 is under 100 nM; on TRKA (setting [2]), under 10 nM; at CDK6/cycD3, under 20 nM; at CDK9/CycT1 it was under 50 nM; on CDK16/CycY, under 100 nM; on CDK5/p35NCK, under 100 nM. The IC50 on CDK4/CycD3 is under 10 nM. The AUC(0-t) in data set [1] was 274 ng·h/mL. For the same compound, the peak level in [1] (Cmax) was 43.4 ng/mL. In [1], the Tmax was 2 h. The compound further had a half-life in data set [1] of 2.96 h.
On to `CC(=O)c1c(C)c2cnc(Nc3ccc4c(c3)OC[C@@H]3CN(C5CN(C)C5)CCN43)nc2n(C2CCCC2)c1=O` [Compound 7S], for which the IC50 was under 100 nM at CDK2/CycA2; under 10 nM on TRKA (setting [2]); under 10 nM on CDK6/cycD3; under 50 nM at CDK9/CycT1; under 100 nM at CDK16/CycY; under 100 nM on CDK5/p35NCK. Also, the IC50 at CDK4/CycD3 was under 10 nM. Also, the AUC(0-t) in [1] came to 1940 ng·h/mL. In data set [1], the highest concentration (Cmax) worked out at 133 ng/mL. Moreover, the Tmax in data set [1] was determined as 9.33 h. Besides, the half-life in [1] was 3.19 h.
Regarding `CCN1CCC(N2CCN3c4ccc(Nc5ncc6c(C)c(C(C)=O)c(=O)n(C7CCCC7)c6n5)cc4OC[C@@H]3C2)CC1` [Compound 4S], the 50% inhibitory concentration (IC50) at CDK2/CycA2 was under 100 nM; on TRKA (setting [2]), under 10 nM; at CDK6/cycD3 it was under 10 nM; on CDK9/CycT1, under 20 nM; at CDK16/CycY it was under 100 nM; at CDK5/p35NCK, under 100 nM. Further, the half-inhibitory concentration (IC50) at CDK4/CycD3 was under 10 nM. In [1], this compound yielded an AUC(0-t) of 3770 ng·h/mL. The compound also registered a maximum concentration (Cmax) in data set [1] of 250 ng/mL. Moreover, the Tmax in data set [1] was 12 h. Further, in [1], the half-life was 10.7 h.
As to `CC(=O)c1c(C)c2cnc(Nc3ccc4c(c3)OC[C@@H]3CN(C5CCNCC5)CCN43)nc2n(C2CCCC2)c1=O` [Compound 3S], the half-maximal inhibitory concentration (IC50) was under 100 nM on CDK2/CycA2; under 10 nM at TRKA (setting [2]); under 10 nM on CDK6/cycD3; under 20 nM at CDK9/CycT1; under 50 nM at CDK16/CycY; under 100 nM at CDK5/p35NCK. In addition, on CDK4/CycD3, the IC50 is under 10 nM. Further, the AUC(0-t) in [1] was determined as 1230 ng·h/mL. In addition, the highest concentration (Cmax) in data set [1] worked out at 85.7 ng/mL. The time to peak (Tmax) in data set [1] was 5.33 h. Besides, in data set [1], the half-life was 5.68 h.
